Data from US6479435B1, “Diaryl ethers and processes for their preparation and herbicidal and desiccant compositions containing them” (ISK Americas Incorporated, priority 1997, dated 2002).

Experiments:
Format in all cases: in vivo
[1] = tested on: barnyardgrass (Echinochloa crusgalli, ECHCG); assay: Post-emerge greenhouse herbicide test, phytotoxicity rating; conditions: 14 days after application, scale 0-100
Outline: (§1)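 Plants at the 2-3 leaf stage, sown 8-21 days earlier, were track-sprayed post-emergence with compound in acetone plus 0.25% v/v non-ionic surfactant at 63-1000 g ai/ha (187 l/ha). Damage was rated at 14 days on a 0-100 scale (0 none, 100 all plants dead), for both crop injury and weed control.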

[2] = tested on: large crabgrass (Digitaria sanguinalis, DIGSA); assay: as above; conditions: 14 days after application, scale 0-100
Outline: as §1

[3] = tested on: sicklepod (Cassia obtusifolia, CASOB); assay: as above; conditions: 14 days after application, scale 0-100
Outline: as §1

[4] = tested on: lambsquarters (Chenopodium album, CHEAL); assay: as above; conditions: 14 days after application, scale 0-100
Outline: as §1

[5] = tested on: velvetleaf (Abutilon theophrasti, ABUTH); assay: as above; conditions: 14 days after application, scale 0-100
Outline: as §1

[6] = tested on: green foxtail (Setaria viridis, SETVI); assay: as above; conditions: 14 days after application, scale 0-100
Outline: as §1

[7] = tested on: redroot pigweed (Amaranthus retroflexus, AMARE); assay: as above; conditions: 14 days after application, scale 0-100
Outline: as §1

[8] = tested on: Johnsongrass (Sorghum halepense, SORHA); assay: as above; conditions: 14 days after application, scale 0-100
Outline: as §1

[9] = tested on: ivyleaf morningglory (Ipomoea hederacea, IPOHE); assay: as above; conditions: 14 days after application, scale 0-100
Outline: as §1

[10] = tested on: common ragweed (Ambrosia artemisiifolia L., AMBEL); assay: as above; conditions: 14 days after application, scale 0-100
Outline: as §1

[11] = tested on: soybean (Glycine max L., var. Pella 86, SOY); assay: Pre-emerge greenhouse test, crop damage rating; design: key to SOY crop damage rating: 0 = no damage, 100 = complete death of all plants; conditions: 14 days after application, rating scale 0-100
Outline: (§2)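 Seeds sown in sandy loam one day before track-sprayer application of acetone solutions at 125–1000 g ai/ha (187 l/ha), then surface-watered to incorporate and bottom-watered. Injury scored visually at 14 days on a 0–100 scale (0 no damage, 100 complete death).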

[12] = tested on: barnyardgrass (Echinochloa crusgalli, ECHCG); assay: Pre-emerge greenhouse herbicide test, phytotoxicity rating; conditions: 14 days after application, rating scale 0-100
Outline: as §2

[13] = tested on: large crabgrass (Digitaria sanguinalis, DIGSA); assay: as above; conditions: 14 days after application, rating scale 0-100
Outline: as §2

[14] = tested on: sicklepod (Cassia obtusifolia, CASOB); assay: as above; conditions: 14 days after application, rating scale 0-100
Outline: as §2

[15] = tested on: common ragweed (Ambrosia artemisiifolia L., AMBEL); assay: as above; conditions: 14 days after application, rating scale 0-100
Outline: as §2

[16] = tested on: lambsquarters (Chenopodium album, CHEAL); assay: as above; conditions: 14 days after application, rating scale 0-100
Outline: as §2

[17] = tested on: velvetleaf (Abutilon theophrasti, ABUTH); assay: as above; conditions: 14 days after application, rating scale 0-100
Outline: as §2

[18] = tested on: green foxtail (Setaria viridis, SETVI); assay: as above; conditions: 14 days after application, rating scale 0-100
Outline: as §2

[19] = tested on: redroot pigweed (Amaranthus retroflexus, AMARE); assay: as above; conditions: 14 days after application, rating scale 0-100
Outline: as §2

[20] = tested on: Johnsongrass (Sorghum halepense, SORHA); assay: as above; conditions: 14 days after application, rating scale 0-100
Outline: as §2

[21] = tested on: ivyleaf morningglory (Ipomoea hederacea, IPOHE); assay: as above; conditions: 14 days after application, rating scale 0-100
Outline: as §2

[22] = tested on: soybean (Glycine max L., var. Pella 86, SOY); assay: Post-emerge greenhouse test, crop damage rating; design: key to crop damage rating SOY: 0-100 scale: 0 = no damage, 100 = complete death of all plants; conditions: 14 days after application, scale 0-100
Outline: as §1

[23] = tested on: upland rice (Oryza sp., var.Tebonnet, RICE); assay: Pre-emerge greenhouse test, crop damage rating; conditions: 14 days after application, rating scale 0-100
Outline: as §2

[24] = tested on: field corn (Zea mays L., var. Dekalb 535, CORN); assay: Pre-emerge greenhouse test, crop damage rating; conditions: 14 days after application, rating scale 0-100
Outline: as §2

[25] = tested on: upland rice (Oryza sp., var.Tebonnet, RICE); assay: Post-emerge greenhouse test, crop damage rating; conditions: 14 days after application, scale 0-100
Outline: as §1

[26] = tested on: field corn (Zea mays L., var. Dekalb 535, CORN); assay: Post-emerge greenhouse test, crop damage rating; conditions: 14 days after application, scale 0-100
Outline: as §1

## O=c1n(-c2cc(Oc3cccc(F)n3)c(Cl)cc2F)c(=S)n2n1CCCC2 [Compound 8-25]
[1]; rate 63 g ai/ha
  phytotoxicity rating ECHCG: 20
[1]; rate 500 g ai/ha
  phytotoxicity rating ECHCG: 65
[2]; rate 63 g ai/ha
  phytotoxicity rating DIGSA: 10
[2]; rate 500 g ai/ha
  phytotoxicity rating DIGSA: 40
[3]; rate 63 g ai/ha
  phytotoxicity rating CASOB: 70
[3]; rate 500 g ai/ha
  phytotoxicity rating CASOB: 100
[4]; rate 63 g ai/ha
  phytotoxicity rating CHEAL: 90
[4]; rate 500 g ai/ha
  phytotoxicity rating CHEAL: 100
[5]; rate 63 g ai/ha
  phytotoxicity rating ABUTH: 100
[5]; rate 500 g ai/ha
  phytotoxicity rating ABUTH: 100
[6]; rate 63 g ai/ha
  phytotoxicity rating SETVI: 80
[6]; rate 500 g ai/ha
  phytotoxicity rating SETVI: 95
[7]; rate 63 g ai/ha
  phytotoxicity rating AMARE: 100
[7]; rate 500 g ai/ha
  phytotoxicity rating AMARE: 100
[8]; rate 63 g ai/ha
  phytotoxicity rating SORHA: 40
[8]; rate 500 g ai/ha
  phytotoxicity rating SORHA: 60
[9]; rate 63 g ai/ha
  phytotoxicity rating IPOHE: 100
[9]; rate 500 g ai/ha
  phytotoxicity rating IPOHE: 100
[10]; rate 63 g ai/ha
  phytotoxicity rating AMBEL: 90
[10]; rate 500 g ai/ha
  phytotoxicity rating AMBEL: 90
[11]; Rate 125 g al/ha
  SOY crop damage rating: 0
[11]; Rate 500 g al/ha
  SOY crop damage rating: 20
[12]; Rate 125 g al/ha
  ECHCG phytotoxicity rating: 40
[12]; Rate 500 g al/ha
  ECHCG phytotoxicity rating: 100
[13]; Rate 125 g al/ha
  DIGSA phytotoxicity rating: 85
[13]; Rate 500 g al/ha
  DIGSA phytotoxicity rating: 100
[14]; Rate 125 g al/ha
  CASOB phytotoxicity rating: 70
[14]; Rate 500 g al/ha
  CASOB phytotoxicity rating: 100
[15]; Rate 125 g al/ha
  AMBEL phytotoxicity rating: 40
[15]; Rate 500 g al/ha
  AMBEL phytotoxicity rating: 90
[16]; Rate 125 g al/ha
  CHEAL phytotoxicity rating: 100
[16]; Rate 500 g al/ha
  CHEAL phytotoxicity rating: 100
[17]; Rate 125 g al/ha
  ABUTH phytotoxicity rating: 100
[17]; Rate 500 g al/ha
  ABUTH phytotoxicity rating: 100
[18]; Rate 125 g al/ha
  SETVI phytotoxicity rating: 100
[18]; Rate 500 g al/ha
  SETVI phytotoxicity rating: 100
[19]; Rate 125 g al/ha
  AMARE phytotoxicity rating: 100
[19]; Rate 500 g al/ha
  AMARE phytotoxicity rating: 100
[20]; Rate 125 g al/ha
  SORHA phytotoxicity rating: 70
[20]; Rate 500 g al/ha
  SORHA phytotoxicity rating: 90
[21]; Rate 125 g al/ha
  IPOHE phytotoxicity rating: 20
[21]; Rate 500 g al/ha
  IPOHE phytotoxicity rating: 20
[22]; rate 63 g ai/ha
  crop damage rating SOY: 70
[22]; rate 500 g ai/ha
  crop damage rating SOY: 90
[23]; Rate 125 g al/ha
  RICE crop damage rating: 15
[23]; Rate 500 g al/ha
  RICE crop damage rating: 70
[24]; Rate 125 g al/ha
  CORN crop damage rating: 0
[24]; Rate 500 g al/ha
  CORN crop damage rating: 40
[25]; rate 63 g ai/ha
  crop damage rating RICE: 10
[25]; rate 500 g ai/ha
  crop damage rating RICE: 60
[26]; rate 63 g ai/ha
  crop damage rating CORN: 10
[26]; rate 500 g ai/ha
  crop damage rating CORN: 25

## COc1cc(Oc2cc(-n3c(=O)n4n(c3=S)CCCC4)c(F)cc2Cl)nc(OC)n1 [Compound 8-32]
[1]; rate 63 g ai/ha
  phytotoxicity rating ECHCG: 0
[1]; rate 500 g ai/ha
  phytotoxicity rating ECHCG: 10
[2]; rate 63 g ai/ha
  phytotoxicity rating DIGSA: 0
[2]; rate 500 g ai/ha
  phytotoxicity rating DIGSA: 0
[3]; rate 63 g ai/ha
  phytotoxicity rating CASOB: 10
[3]; rate 500 g ai/ha
  phytotoxicity rating CASOB: 100
[4]; rate 63 g ai/ha
  phytotoxicity rating CHEAL: 95
[4]; rate 500 g ai/ha
  phytotoxicity rating CHEAL: 100
[5]; rate 63 g ai/ha
  phytotoxicity rating ABUTH: 100
[5]; rate 500 g ai/ha
  phytotoxicity rating ABUTH: 100
[6]; rate 63 g ai/ha
  phytotoxicity rating SETVI: 10
[6]; rate 500 g ai/ha
  phytotoxicity rating SETVI: 40
[7]; rate 63 g ai/ha
  phytotoxicity rating AMARE: 90
[7]; rate 500 g ai/ha
  phytotoxicity rating AMARE: 100
[8]; rate 63 g ai/ha
  phytotoxicity rating SORHA: 0
[8]; rate 500 g ai/ha
  phytotoxicity rating SORHA: 20
[9]; rate 63 g ai/ha
  phytotoxicity rating IPOHE: 100
[9]; rate 500 g ai/ha
  phytotoxicity rating IPOHE: 100
[10]; rate 63 g ai/ha
  phytotoxicity rating AMBEL: 50
[10]; rate 500 g ai/ha
  phytotoxicity rating AMBEL: 90
[11]; Rate 125 g al/ha
  SOY crop damage rating: 0
[11]; Rate 500 g al/ha
  SOY crop damage rating: 0
[12]; Rate 125 g al/ha
  ECHCG phytotoxicity rating: 0
[12]; Rate 500 g al/ha
  ECHCG phytotoxicity rating: 20
[13]; Rate 125 g al/ha
  DIGSA phytotoxicity rating: 20
[13]; Rate 500 g al/ha
  DIGSA phytotoxicity rating: 90
[14]; Rate 125 g al/ha
  CASOB phytotoxicity rating: 30
[14]; Rate 500 g al/ha
  CASOB phytotoxicity rating: 80
[15]; Rate 125 g al/ha
  AMBEL phytotoxicity rating: 0
[15]; Rate 500 g al/ha
  AMBEL phytotoxicity rating: 50
[16]; Rate 125 g al/ha
  CHEAL phytotoxicity rating: 90
[16]; Rate 500 g al/ha
  CHEAL phytotoxicity rating: 100
[17]; Rate 125 g al/ha
  ABUTH phytotoxicity rating: 95
[17]; Rate 500 g al/ha
  ABUTH phytotoxicity rating: 100
[18]; Rate 125 g al/ha
  SETVI phytotoxicity rating: 10
[18]; Rate 500 g al/ha
  SETVI phytotoxicity rating: 100
[19]; Rate 125 g al/ha
  AMARE phytotoxicity rating: 50
[19]; Rate 500 g al/ha
  AMARE phytotoxicity rating: 100
[20]; Rate 125 g al/ha
  SORHA phytotoxicity rating: 10
[20]; Rate 500 g al/ha
  SORHA phytotoxicity rating: 30
[21]; Rate 125 g al/ha
  IPOHE phytotoxicity rating: 40
[21]; Rate 500 g al/ha
  IPOHE phytotoxicity rating: 90
[22]; rate 63 g ai/ha
  crop damage rating SOY: 30
[22]; rate 500 g ai/ha
  crop damage rating SOY: 80
[23]; Rate 125 g al/ha
  RICE crop damage rating: 0
[23]; Rate 500 g al/ha
  RICE crop damage rating: 40
[24]; Rate 125 g al/ha
  CORN crop damage rating: 0
[24]; Rate 500 g al/ha
  CORN crop damage rating: 10
[25]; rate 63 g ai/ha
  crop damage rating RICE: 0
[25]; rate 500 g ai/ha
  crop damage rating RICE: 10
[26]; rate 63 g ai/ha
  crop damage rating CORN: 5
[26]; rate 500 g ai/ha
  crop damage rating CORN: 5
